IC50, Gli1 protein levels and Gli1 protein expression data for 2 molecules are collected here from paper PMC7503713, “GANT61 Reduces Hedgehog Molecule (GLI1) Expression and Promotes Apoptosis in Metastatic Oral Squamous Cell Carcinoma Cells” (International Journal of Molecular Sciences, 2020).

One may read the IC50 as the midpoint of a concentration-inhibition curve.

Values joined by “and” are separate entries in the source; they are usually repeats but may differ in a detail not shown here. Identical values can stand only once.

One assay concerns HSC3. Put plainly: alamarBlue cytotoxicity assay, HSC3. Format: cell-based, human. Particulars: 72 h of incubation. As to the method: For cytotoxicity assessments, this study primarily focused on the highly metastatic HSC3 OSCC cell line (JCRB Cell Bank, Osaka, Japan) and employed other histological tumor cell types and non-tumor cells (Supplementary Table S1). HSC3 cells were placed in flasks ([…], 250 mL volume) containing DMEM medium (Gibco, Lif Technologies, Gaithesburg, MD, USA) supplemented with 10% fetal bovine serum (FBS, Gibco, Life Technologies, Gaithesburg, MD, USA) 1% penicillin, 1% streptomycin (Gibco, Life Technologies, Gaithesburg, MD, USA), and 0.8% hydrocortisone (Sigma-Aldrich, St. Louis, MO, USA). Cells were cultured and kept in incubators, under an atmosphere of 5% CO2 at 37 °C. Trypsinization was used to dissociate cells when cell growth reached the necessary confluence, i.e., 70 to 80% of the total culture flask volume. Cell cultures were tested periodically for mycoplasma contamination and evaluated by using a luminometer, according to the MycoAlert^TM PLUS protocol (Lonza, Walkersville Inc., Walkersville, MD, USA, 2012).
To assess the cytotoxicity of the GLI inhibitor GANT61 (Sigma-Aldrich, St. Louis, MO, USA) in tumor and non-tumor cell lines, an alamarBlue assay (Sigma-Aldrich Chemical Co, St. Louis, MO, USA) was performed after 72 h of exposure to the inhibitor, as described by Ahmed et al., 1994 [46]. Cells were distributed on 96-well plates at a density of 7 × 10^4 cells/mL for adhered cells, and 3 × 10^5 cells/mL for cells in suspension. All tested compounds were dissolved in DMSO, added to wells containing 100 µL of cells in complete medium, and then incubated for 72 h. Eight concentrations of GANT61 (0.19 to 50 µg/mL), Doxorubicin (Laboratory IMA S.A.I.C., Buenos Aires, Argentina), and 5-Fluorouracil (5-FU, Sigma-Aldrich, St. Louis, MO, USA), both used as positive controls at concentrations ranging from 0.03 to 5 µg/mL, were added to respective wells. Cells treated with the vehicle (0.5% DMSO) used to dilute the tested compounds were used as negative controls. Before the end of the incubation period (4 h for cell lines and 24 h for PBMCs), 20 µL of alamarBlue stock solution (resazurin, Sigma-Aldrich, St. Louis, MO, USA) was added to each well. Absorbance was measured at 570 nm (reduced) and 595 nm (oxidized) wavelengths, using a Spectramax 190 plate reader (Molecular Devices; Sunnyvale, CA, USA).
Statistical analyses were performed, using GraphPad Prism v. 6.03 (GraphPad Software, Inc., San Diego, USA). Data were analyzed according to distribution along the normal Gaussian curve. […] Differences between groups resulting from in vitro assays were evaluated by ANOVA (analysis of variance) testing, followed by the Student–Newman–Keuls test. […]
For orientation: Alamar Blue is a resazurin reagent that responds to reducing activity.

Another assay has as its system Gli1 protein. Put plainly: Western blot of HH pathway proteins in HSC3 cells, Gli1. The format is cell-based, human. The note with it: 24 h. The procedure:
After culturing, HSC3 cells were washed with PBS and denatured by using cell lysis buffer containing 50 mM Tris-HCl (pH 7.4), 1% Triton X-100, 150 mM NaCl, 0.5 mM EGTA, 0.5 EDTA mM, and an anti-protease cocktail (Complete Pro-inhibitor Cocktail Tablets, Roche, Basel, Switzerland). Protein extracts (50 μg) were separated by SDS-PAGE and transferred to Hybond-C Extra (GE Healthcare, Chicago, IL, USA) nitrocellulose membranes. The following antibodies were used in the Western blot assay: mouse […] against Sonic Hedgehog (1:500, Clone 5 H4, Cat. number NBP2-22126, Novus Biologicals, Centennial, CO, USA), rabbit polyclonal against Gli1 (1:500, Novus Biologicals, Cat. number NB600-600), rabbit polyclonal against Patched 1 (1:500, Novus Biologicals, Cat.number NB200-118), and rabbit polyclonal against Smoothened (1:1000, Cat. number AB72130, Abcam, Cambridge, MA, USA). The secondary antibodies were anti-mouse IgG (1:10,000, Santa Cruz Biotechnology, Santa Cruz, CA, USA) and anti-rabbit IgG (1:10,000, GE Healthcare, Chicago, IL, USA). Signal detection was performed by using an ECL + Chemiluminescence Detection System (PerkinElmer, Villebon sur-Yvette, France). The antibody actin (1:10000, Cat. Number15 G5 A11/E2, Invitrogen, Carlsbad, CA, USA) was selected as an endogenous control for analysis of HH pathway component expression in HSC3 cells. […]

Take `O=c1[nH]cc(F)c(=O)[nH]1` [5-FU, 5-fluorouracil]: the IC50 worked out at 16.8 µM with HSC3 and 17 µM with HSC3 (Homo sapiens, HSC-3, 72 h). Moreover, the Gli1 protein levels entry in the assay with Gli1 protein (HSC3, 17 µM) is reported as “reduce Gli1 protein levels”.
Turning to `CN(C)c1ccccc1CN1CCCN(Cc2ccccc2N(C)C)C1c1ccncc1` [GANT61], the IC50 with HSC3 is 36 µM and 35.9 µM. Further, the Gli1 protein expression result with Gli1 protein (HSC3, 18 and 36 µM) was “reduced levels”.
